biological target: T1, hSTING (Homo sapiens, UniProt Q86WV6, G230A/H232R/R293Q/R71H); assay: STING reporter assay (luciferase) in THP1-Dual KO-IFNAR2 cells activated with 2'3'cGAMP; type: cell-based; conditions: 15 μM 2'3'cGAMP, 24 h
T1 construct: host or cells: THP1-Dual KO-IFNAR2 cells
Procedure: STING pathway activation by the compounds described herein was measured using THP1-Dual™ cells (KO-IFNAR2).
THP1-Dual™ KO-IFNAR2 Cells (obtained from invivogen) were maintained in RPMI, 10% FCS, 5 ml P/S, 2 mM L-glut, 10 mM Hepes, and 1 mM sodium pyruvate. Compounds were spotted in empty 384 well tissue culture plates (Greiner 781182) by Echo for a final concentration of 0.0017-100 μM. Cells were plated into the TC plates at 40 μL per well, 2×10E6 cells/mL. For activation with STING ligand, 2′3′cGAMP (MW 718.38, obtained from Invivogen), was prepared in Optimem media.
The following solutions were prepared for each 1×384 plate: • Solution A: 2 mL Optimem with one of the following stimuli: • 60 μL of 10 mM 2′3′cGAMP 4 150 μM stock • Solution B: 2 mL Optimem with 60 μL Lipofectamine 2000 4 Incubate 5 min at RT
2 mL of solution A and 2 ml Solution B was mixed and incubated for 20 min at room temperature (RT). 20 μL of transfection solution (A+B) was added on top of the plated cells, with a final 2′3′cGAMP concentration of 15 μM. The plates were then centrifuged immediately at 340 g for 1 minute, after which they were incubated at 37° C., 5% CO2, >98% humidity for 24 h. Luciferase reporter activity was then measured. EC50 values were calculated by using standard methods known in the art.
Luciferase reporter assay: 10 μL of supernatant from the assay was transferred to white 384-plate with flat bottom and squared wells. One pouch of QUANTI-Luc™ Plus was dissolved in 25 mL of water. 100 μL of QLC Stabilizer per 25 mL of QUANTI-Luc™ Plus solution was added. 50 μL of QUANTI-Luc™ Plus/QLC solution per well was then added. Luminescence was measured on a Platereader (e.g., Spectramax I3X (Molecular Devices GF3637001)).
Luciferase reporter activity was then measured. EC50 values were calculated by using standard methods known in the art.

T1 sequence (Q86WV6 whole entry R71H/G230A/H232R/R293Q): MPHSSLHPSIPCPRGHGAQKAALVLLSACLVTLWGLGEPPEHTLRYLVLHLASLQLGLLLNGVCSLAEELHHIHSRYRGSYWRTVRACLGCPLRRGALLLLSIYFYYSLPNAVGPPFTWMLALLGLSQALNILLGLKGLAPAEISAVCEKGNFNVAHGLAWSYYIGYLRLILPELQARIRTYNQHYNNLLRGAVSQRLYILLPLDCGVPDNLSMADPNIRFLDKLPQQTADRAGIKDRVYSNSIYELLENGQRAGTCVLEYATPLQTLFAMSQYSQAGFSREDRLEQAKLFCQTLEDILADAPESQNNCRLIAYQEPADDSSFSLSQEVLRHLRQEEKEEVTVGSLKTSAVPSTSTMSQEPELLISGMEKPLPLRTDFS

Compound	EC50 [µM]
FC(F)(F)CN1CCC(c2ccc3[nH]c(Nc4cc(Cl)c5cc[nH]c5c4)nc3c2)CC1 [Compound 153, N-(4-chloro-1H-indol-6-yl)-5-[1-(2,2,2-trifluoroethyl)piperidin-4-yl]-1H-1,3-benzodiazol-2-amine]	0.2 to 1
Clc1cc(Nc2nc3cc(C4CCOC4)ccc3[nH]2)cc2[nH]ccc12 (stereo not shown) [Compound 154, N-(4-chloro-1H-indol-6-yl)-5-(oxolan-3-yl)-1H-1,3-benzodiazol-2-amine]	0.2 to 1
CC(C)n1cc(-c2ccc3[nH]c(Nc4cc(Cl)c5cc[nH]c5c4)nc3c2)cn1 [Compound 155, N-(4-chloro-1H-indol-6-yl)-5-[1-(propan-2-yl)-1H-pyrazol-4-yl]-1H-1,3-benzodiazol-2-amine]	0.2 to 1
Clc1cc(Nc2nc3cc(-c4cnn(CC5CC5)c4)ccc3[nH]2)cc2[nH]ccc12 [Compound 156, N-(4-chloro-1H-indol-6-yl)-5-[1-(cyclopropylmethyl)-1H-pyrazol-4-yl]-1H-1,3-benzodiazol-2-amine]	0.2 to 1
COCCn1cc(-c2ccc3[nH]c(Nc4cc(Cl)c5cc[nH]c5c4)nc3c2)cn1 [Compound 158, N-(4-chloro-1H-indol-6-yl)-5-[1-(2-methoxyethyl)-1H-pyrazol-4-yl]-1H-1,3-benzodiazol-2-amine]	0.2 to 1
Clc1cc(Nc2nc3cc(-c4cnn(C5CCOCC5)c4)ccc3[nH]2)cc2[nH]ccc12 [Compound 159, N-(4-chloro-1H-indol-6-yl)-5-[1-(oxan-4-yl)-1H-pyrazol-4-yl]-1H-1,3-benzodiazol-2-amine]	0.2 to 1
CN1CCC(c2ccc3[nH]c(Nc4cc(Cl)c5cc[nH]c5c4)nc3c2)CC1 [Compound 160, N-(4-chloro-1H-indol-6-yl)-5-(1-methylpiperidin-4-yl)-1H-1,3-benzodiazol-2-amine]	5 to 100
Clc1cc(Nc2nc3cc(C4CCOCC4)ccc3[nH]2)cc2[nH]ccc12 [Compound 161, N-(4-chloro-1H-indol-6-yl)-5-(oxan-4-yl)-1H-1,3-benzodiazol-2-amine]	0.2 to 1
CC(C)(C)OC(=O)N1CCC(c2ccc3[nH]c(Nc4cc(Cl)c5cc[nH]c5c4)nc3c2)CC1 [Compound 162, tert-butyl 4-{2-[(4-chloro-1H-indol-6-yl)amino]-1H-1,3-benzodiazol-5-yl}piperidine-1-carboxylate]	0.2 to 1
FC(F)n1cc(-c2ccc3[nH]c(Nc4cc(Cl)c5cc[nH]c5c4)nc3c2)cn1 [Compound 163, N-(4-chloro-1H-indol-6-yl)-5-[1-(difluoromethyl)-1H-pyrazol-4-yl]-1H-1,3-benzodiazol-2-amine]	0.2 to 1
Clc1cc(Nc2nc3cc(-c4cnn(-c5ccccc5)c4)ccc3[nH]2)cc2[nH]ccc12 [Compound 164, N-(4-chloro-1H-indol-6-yl)-5-(1-phenyl-1H-pyrazol-4-yl)-1H-1,3-benzodiazol-2-amine]	0.2 to 1

Second part, the compound after the results:

EC50 [µM]	Compound
0.2 to 1	CC(C)CCc1ccc2[nH]c(Nc3cc(Cl)c4cc[nH]c4c3)nc2c1 [Compound 165, N-(4-chloro-1H-indol-6-yl)-5-(3-methylbutyl)-1H-1,3-benzodiazol-2-amine]
0.2 to 1	CC(C)(O)c1ccc(-c2ccc3[nH]c(Nc4cc(Cl)c5cc[nH]c5c4)nc3c2)cc1 [Compound 166, 2-(4-{2-[(4-chloro-1H-indol-6-yl)amino]-1H-1,3-benzodiazol-5-yl}phenyl)propan-2-ol]
0.2 to 1	N#Cc1cncc(-c2ccc3[nH]c(Nc4cc(Cl)c5cc[nH]c5c4)nc3c2)c1 [Compound 167, 5-{2-[(4-chloro-1H-indol-6-yl)amino]-1H-1,3-benzodiazol-5-yl}pyridine-3-carbonitrile]
0.2 to 1	Clc1cc(Nc2nc3cc(C4CCCCC4)ccc3[nH]2)cc2[nH]ccc12 [Compound 168, N-(4-chloro-1H-indol-6-yl)-5-cyclohexyl-1H-1,3-benzodiazol-2-amine]
0.2 to 1	COCc1cccc(-c2ccc3[nH]c(Nc4cc(Cl)c5cc[nH]c5c4)nc3c2)c1 [Compound 169, N-(4-chloro-1H-indol-6-yl)-5-[3-(methoxymethyl)phenyl]-1H-1,3-benzodiazol-2-amine]
0.2 to 1	FC(F)(F)Oc1ccc(-c2ccc3[nH]c(Nc4cc(Cl)c5cc[nH]c5c4)nc3c2)cc1 [Compound 170, N-(4-chloro-1H-indol-6-yl)-5-[4-(trifluoromethoxy)phenyl]-1H-1,3-benzodiazol-2-amine]
0.2 to 1	CS(=O)(=O)N1CCC(c2ccc3[nH]c(Nc4cc(Cl)c5cc[nH]c5c4)nc3c2)CC1 [Compound 171, N-(4-chloro-1H-indol-6-yl)-5-(1-methanesulfonylpiperidin-4-yl)-1H-1,3-benzodiazol-2-amine]
0.2 to 1	O=C(C1CC1)N1CCC(c2ccc3[nH]c(Nc4cc(Cl)c5cc[nH]c5c4)nc3c2)CC1 [Compound 172, N-(4-chloro-1H-indol-6-yl)-5-(1-cyclopropanecarbonylpiperidin-4-yl)-1H-1,3-benzodiazol-2-amine]
0.2 to 1	CC(C)(O)CCc1ccc2[nH]c(Nc3cc(Cl)c4cc[nH]c4c3)nc2c1 [Compound 173, 4-{2-[(4-chloro-1H-indol-6-yl)amino]-1H-1,3-benzodiazol-5-yl}-2-methylbutan-2-ol]
0.04 to 0.2	Fc1c[nH]c2cc(Nc3nc4cc(Cl)c(Cl)cc4[nH]3)ccc12 [Compound 174, 5,6-dichloro-N-(3-fluoro-1H-indol-6-yl)-1H-1,3-benzodiazol-2-amine]
0.04 to 0.2	Fc1c[nH]c2cc(Nc3nc4cc(C(F)(F)F)ccc4[nH]3)ccc12 [Compound 175, N-(3-fluoro-1H-indol-6-yl)-5-(trifluoromethyl)-1H-1,3-benzodiazol-2-amine]
